The text below walks through data of US20070196902A1, “Method of detecting AZT resistance in HIV” (University of Pittsburgh, priority 2006, published 2007).

Where two headings read alike, the source gives them in different places.

The test system of assay [1] is HIVLAI RT D67N/K70R/T215F/A371V/Q509L. Kind of assay: Drug susceptibility assay in P4/R5 cells, site-directed mutant. To be noted: for Fold-Resistance: D67N/K70R/T215F/A371V/Q509L compared to wild-type; for cross-resistance compared with viruses without A371V/Q509L: HIV-1 containing D67N/K70R/T215F/A371V/Q509L; for IC50: D67N/K70R/T215F/A371V/Q509L, mean ± SD. It counts as cell-based, HIV-1. As for the experimental part: (§1) Drug susceptibility assays. NRTI susceptibility was determined in P4/R5 cells as described previously (Parikh, U. M., et al. 2005. Antimicrob. Agents Chemother. 49:1139-44). Briefly, threefold dilutions of inhibitor were added to P4/R5 cells in triplicate and cells were infected with an amount of virus that produced 100 relative units of light (RLU) in no drug, virus control wells. After 48 hours, the cells were lysed (Gal-Screen; Tropix/Applied Biosystems, Foster City, Calif.) and the RLU was measured using a ThermoLabSystems luminometer (Waltham, Mass.). The IC50 and fold-resistance were calculated as described above. IC50 values from at least three independent experiments were log10 transformed and compared for statistically significant differences using the two-sample Student's t test.
(§2) Construction of mutant recombinant HIV-1. Mutant recombinant plasmid clones of virus were generated by oligonucleotide site-directed mutagenesis as described previously (Shi, C., and J. W. Mellors. 1997. A recombinant retroviral system for rapid […] analysis of human immunodeficiency virus type 1 susceptibility to reverse transcriptase inhibitors. Antimicrob. Agents Chemother. 41:2781-5), using the p6HRT-MO plasmid. p6HRT-MO contains the entire RT and protease coding sequence as previously described (Le Grice, S. F., and F. Gruninger-Leitch. 1990. Rapid purification of homodimer and heterodimer HIV-1 reverse transcriptase by metal chelate affinity chromatography. Eur. J. Biochem. 187:307-14) and four silent restriction sites (Xma I, Mlu I, Xba I, and NgoM IV from the 5′ to 3′ end of RT at codons 14, 358, 490 and 554, respectively). After site-directed mutagenesis (QIAamp kit, QIAGEN, Valencia, Calif.), the mutated RT was ligated into pxxHIV-1LAI MO that contains the entire genome of HIV-1LAI and the same silent restriction sites as p6HRT-MO. Infectious virus was generated by electroporating the mutated xxHIV-1LAI MO plasmid into MT-2 cells as described above. All mutations in recombinant viruses were confirmed by full-length sequencing of the entire RT coding region.

The test system of assay [2] is HIVLAI RT D67N/K70R/T215F. The description is as above. It is filed as cell-based, HIV-1. To be noted: for Fold-Resistance: D67N/K70R/T215F compared to wild-type; for IC50: D67N/K70R/T215F, mean ± SD. As for the experimental part:
as §1, §2

Assay [3] has as its system HIVLAI RT D67N/K70R/A371V/Q509L. The assay is described as above. It is filed as cell-based, HIV-1. To be noted: for Fold-Resistance: D67N/K70R/A371V/Q509L compared to wild-type; for IC50: D67N/K70R/A371V/Q509L, mean ± SD. As for the experimental part: as §1, §2
The test system of a further assay is HIVLAI RT D67N/K70R. Described as above. Conditions: for Fold-Resistance: D67N/K70R compared to wild-type; for IC50: D67N/K70R, mean ± SD. It is filed as cell-based, HIV-1. As for the experimental part: as §1, §2
In another assay the test system is Wild-type HIVLAI. Kind of assay: Drug susceptibility assay in P4/R5 cells, recombinant virus. It is filed as cell-based, HIV-1. As for the experimental part: as §1, §2
The test system of assay [4] is HIV-1 RT mutants with A371V and/or Q509L, alone or in combination with TAMs. Kind of assay: Drug susceptibility of site-directed mutants, comparisons between mutants with and without A371V/Q509L. It is filed as cell-based. Conditions: D67N/K70R/A371V/Q509L and D67N/K70R/T215F/A371V/Q509L.
Assay [5] has as its system HIV-1 RT mutations D549N and H539N. Conditions: cited from earlier work.
The subject of assay [6] is HIV-1 RT D549N with TAMs D67N, K70R, T215Y and K219Q. Conditions: D549N present with TAMs D67N; cited from earlier work.
In another assay the test system is HIV-1 RT D549N. To be noted: D549N mutation; cited from earlier work.
For a further assay, the system named is HIV-1 RT H539N. Conditions: H539N mutation; cited from earlier work.
Setting [7] is: Human immunodeficiency virus 1, P4/R5.

What is called IC50 is the concentration that inhibits the measured activity by half. Consider `Nc1nc(NC2CC2)c2ncn([C@H]3C=C[C@@H](CO)C3)c2n1` [abacavir], for which the Fold-Resistance in assay [1] is listed as 3.0 fold; in [2] it was 2.4 fold; in assay [3], 2.0 fold; with HIVLAI RT D67N/K70R, 1.2 fold. The “cross-resistance compared with viruses without A371V/Q509L” value in [1] is “greater cross-resistance”. Besides, the 50% inhibitory concentration (IC50) stood at 19 ± 4.5 µM in assay [1] (setting [7]); 15 ± 1.5 µM in assay [2] (setting [7]); 13 ± 2.5 µM in [3] (setting [7]); 7.9 ± 0.4 µM in the assay on HIVLAI RT D67N/K70R (setting [7]); 6.4 ± 0.5 µM in the assay on Wild-type HIVLAI (setting [7]). Besides, the “cross-resistance of viruses with A371V and Q509L in combination with TAMs compared with those with only TAMs” value in assay [4] is “Statistically significant increases in cross-resistance”.
As to `O=c1[nH]cnc2c1ncn2[C@H]1CC[C@@H](CO)O1` [didanosine], the Fold-Resistance is 1.6 fold in assay [1], 1.6 fold in assay [2], 1.2 fold in assay [3] and 1.2 fold in the assay with HIVLAI RT D67N/K70R. For the same compound, the IC50 in assay [1] (setting [7]) was found to be 6.6 ± 0.4 µM; in assay [2] (setting [7]) it was 6.8 ± 0.3 µM; in [3] (setting [7]), 4.9 ± 0.9 µM; in the assay on HIVLAI RT D67N/K70R (setting [7]) it was 5 ± 0.9 µM; in the assay with Wild-type HIVLAI (setting [7]), 4.2 ± 0.9 µM. In assay [5], the “effect of the mutations on susceptibility” value was “no effect”.
Turning to `O=C1Nc2ccc(Cl)cc2[C@@](C#CC2CC2)(C(F)(F)F)O1` [efavirenz], in [5], the “effect of the mutations on susceptibility” value is on record as “no effect”.
For the compound `Nc1ccn([C@@H]2CS[C@H](CO)O2)c(=O)n1` [lamivudine], the Fold-Resistance in assay [1] amounted to 15 fold; in assay [2], 7.0 fold; in assay [3] it was 5.2 fold; in the assay with HIVLAI RT D67N/K70R it was 1.9 fold. The IC50 in [1] (setting [7]) stood at 7.5 ± 1.8 µM; in [2] (setting [7]), 3.8 ± 0.59 µM; in assay [3] (setting [7]), 2.7 ± 1.4 µM; with HIVLAI RT D67N/K70R (setting [7]), 1 ± 0.3 µM; in the assay with Wild-type HIVLAI (setting [7]), 0.5 ± 0.1 µM.
Regarding `Cc1cn([C@H]2C=C[C@@H](CO)O2)c(=O)[nH]c1=O` [stavudine], the increase in resistance in assay [6] was 12.5 fold. In addition, the “increase in resistance (reduced susceptibility)” value with HIV-1 RT D549N is on record as 2,4 fold; with HIV-1 RT H539N it was 10 fold. In addition, the Fold-Resistance in assay [1] was found to be 2.0 fold; in assay [2] it was 2.4 fold; in assay [3] it was 1.3 fold; in the assay on HIVLAI RT D67N/K70R, 1.4 fold. Moreover, the IC50 in assay [1] (setting [7]) was 14 ± 4.4 µM; in assay [2] (setting [7]) it was 17 ± 4.6 µM; in [3] (setting [7]), 9.6 ± 2.9 µM; in the assay with HIVLAI RT D67N/K70R (setting [7]), 10 ± 3.1 µM; with Wild-type HIVLAI (setting [7]), 7.2 ± 0.6 µM.
Turning to `C[C@H](Cn1cnc2c(N)ncnc21)OCP(=O)(O)O` [tenofovir], the Fold-Resistance in assay [1] was 2.7 fold; in assay [2] it was 1.5 fold; in assay [3], 2.2 fold; with HIVLAI RT D67N/K70R, 1.5 fold. Besides, the IC50 stood at 9 ± 3.5 µM in assay [1]; 4.9 ± 0.7 µM in assay [2]; 7.3 ± 1.3 µM in [3]; 4.9 ± 1.5 µM in the assay with HIVLAI RT D67N/K70R; 3.3 ± 0.9 µM with Wild-type HIVLAI (Wild-type HIVLAI RT, mean ± SD, at least 3 independent experiments, read-out: IC50). Besides, the “cross-resistance compared with viruses without A371V/Q509L” value in assay [1] is given as “greater cross-resistance”. Further, in [4], the “cross-resistance of viruses with A371V and Q509L in combination with TAMs compared with those with only TAMs” value is “trend toward decreased susceptibility”.
